From ChEMBL document CHEMBL3232945 (Eur J Med Chem, 2014)

Assays:
Rattus norvegicus [1] = assay: Toxicity in […] normotensive Wistar rat assessed as mean arterial pressure at 40 mg/kg, ip measured immediately at 0 min (reference value: 94.21 +/- 2.065 mmHg); assay type: organism-based, Artery; parameters: dose 40 mg/kg, route intraperitoneal; settings: in vivo, 0 h
Rattus norvegicus [2] = assay: Toxicity in anesthetized-normotensive Wistar rat assessed as heart rate at 40 mg/kg, ip after 15 mins (reference value: 313.93 +/- 9.912 bpm); assay type: organism-based; parameters: dose 40 mg/kg, route intraperitoneal; settings: in vivo, 0.25 h
Rattus norvegicus [3] = assay: Toxicity in anaesthetized-Wistar rat assessed as QRS ECG interval at 40 mg/kg, ip after 15 mins (reference value: 18.9 +/- 1.563 ms); assay type: organism-based; parameters: dose 40 mg/kg, route intraperitoneal; settings: in vivo, 0.25 h
Rattus norvegicus [4] = assay: Antiarrhythmic activity in barium chloride-induced Wistar rat assessed as increase in mortality time at 40 mg/kg, ip administered 60 mins before barium chloride challenge (reference value: 682.8 +/- 9.656 secs); assay type: functional, Heart; settings: route intraperitoneal
Rattus norvegicus [5] = assay: Toxicity in anaesthetized-Wistar rat assessed as Q-T ECG interval at 40 mg/kg, ip after 45 mins (reference value: 78.8 +/- 0.927 ms); assay type: organism-based; parameters: dose 40 mg/kg, route intraperitoneal; settings: in vivo, 0.75 h
Rattus norvegicus [6] = assay: Toxicity in anaesthetized-Wistar rat assessed as QRS ECG interval at 40 mg/kg, ip after 30 mins (reference value: 19.9 +/- 1.393 ms); assay type: organism-based; parameters: dose 40 mg/kg, route intraperitoneal; settings: in vivo, 0.5 h
Rattus norvegicus [7] = assay: Toxicity in […] normotensive Wistar rat assessed as mean arterial pressure at 40 mg/kg, ip after 45 mins (reference value: 94.83 +/- 0.943 mmHg); assay type: organism-based, Artery; parameters: dose 40 mg/kg, route intraperitoneal; settings: in vivo, 0.75 h
Rattus norvegicus [8] = assay: Toxicity in anaesthetized-Wistar rat assessed as P-Q ECG interval at 40 mg/kg, ip after 60 mins (reference value: […] +/- 0.924 ms); assay type: organism-based; parameters: dose 40 mg/kg, route intraperitoneal; settings: in vivo, 1 h
Rattus norvegicus [9] = assay: Toxicity in […] normotensive Wistar rat assessed as mean arterial pressure at 40 mg/kg, ip after 60 mins (reference value: 95.07 +/- 1.973 mmHg); assay type: organism-based, Artery; parameters: dose 40 mg/kg, route intraperitoneal; settings: in vivo, 1 h
Rattus norvegicus [10] = assay: Toxicity in anaesthetized-Wistar rat assessed as QRS ECG interval at 40 mg/kg, ip after 45 mins (reference value: 20.2 +/- 1.348 ms); assay type: organism-based; parameters: dose 40 mg/kg, route intraperitoneal; settings: in vivo, 0.75 h
Rattus norvegicus [11] = assay: Toxicity in anesthetized-normotensive Wistar rat assessed as heart rate at 40 mg/kg, ip measured immediately at 0 min (reference value: 316.62 +/- 9.643 bpm); assay type: organism-based; parameters: dose 40 mg/kg, route intraperitoneal; settings: in vivo, 0 h
Rattus norvegicus [12] = assay: Toxicity in […] normotensive Wistar rat assessed as mean arterial pressure at 40 mg/kg, ip after 15 mins (reference value: 93.81 +/- 1.543 mmHg); assay type: organism-based, Artery; parameters: dose 40 mg/kg, route intraperitoneal; settings: in vivo, 0.25 h
Rattus norvegicus [13] = assay: Toxicity in anaesthetized-Wistar rat assessed as Q-T ECG interval at 40 mg/kg, ip measured immediately at 0 min (reference value: 78.8 +/- 1.030 ms); assay type: organism-based; parameters: dose 40 mg/kg, route intraperitoneal; settings: in vivo, 0 h
Rattus norvegicus [14] = assay: Antiarrhythmic activity in barium chloride-induced Wistar rat assessed as increase in appearance time of arrhythmia at 40 mg/kg, ip administered 60 mins before barium chloride challenge (reference value: 129.4 +/- 4.373 sec); assay type: functional, Heart; settings: route intraperitoneal
Rattus norvegicus [15] = assay: Antihypertensive activity in Wistar rat assessed as mean arterial pressure at 40 mg/kg, ip after 60 mins (reference value: 195.11 +/- 0.531 mmHg); assay type: functional, Artery; settings: route intraperitoneal
Rattus norvegicus [16] = assay: Toxicity in anaesthetized-Wistar rat assessed as P-Q ECG interval at 40 mg/kg, ip after 30 mins (reference value: […] +/- 0.927 ms); assay type: organism-based; parameters: dose 40 mg/kg, route intraperitoneal; settings: in vivo, 0.5 h
Rattus norvegicus [17] = assay: Antihypertensive activity in Wistar rat assessed as mean arterial pressure at 40 mg/kg, ip measured immediately at 0 min (reference value: 194.08 +/- 1.962 mmHg); assay type: functional, Artery; settings: route intraperitoneal
Rattus norvegicus [18] = assay: Toxicity in anaesthetized-Wistar rat assessed as Q-T ECG interval at 40 mg/kg, ip after 60 mins (reference value: 79.7 +/- 0.965 ms); assay type: organism-based; parameters: dose 40 mg/kg, route intraperitoneal; settings: in vivo, 1 h
Rattus norvegicus [19] = assay: Antihypertensive activity in Wistar rat assessed as mean arterial pressure at 40 mg/kg, ip after 30 mins (reference value: 194.72 +/- 1.002 mmHg); assay type: functional, Artery; settings: route intraperitoneal
Rattus norvegicus [20] = assay: Antihypertensive activity in Wistar rat assessed as mean arterial pressure at 40 mg/kg, ip after 15 mins (reference value: 195.68 +/- 1.623 mmHg); assay type: functional, Artery; settings: route intraperitoneal
Rattus norvegicus [21] = assay: Toxicity in anesthetized-normotensive Wistar rat assessed as heart rate at 40 mg/kg, ip after 45 mins (reference value: 316.82 +/- 8.452 bpm); assay type: organism-based; parameters: dose 40 mg/kg, route intraperitoneal; settings: in vivo, 0.75 h
Rattus norvegicus [22] = assay: Toxicity in anaesthetized-Wistar rat assessed as P-Q ECG interval at 40 mg/kg, ip after 45 mins (reference value: 52.5 +/- 0.780 ms); assay type: organism-based; parameters: dose 40 mg/kg, route intraperitoneal; settings: in vivo, 0.75 h
Rattus norvegicus [23] = assay: Toxicity in anaesthetized-Wistar rat assessed as Q-T ECG interval at 40 mg/kg, ip after 15 mins (reference value: 79.4 +/- 1.270 ms); assay type: organism-based; parameters: dose 40 mg/kg, route intraperitoneal; settings: in vivo, 0.25 h
Rattus norvegicus [24] = assay: Toxicity in anesthetized-normotensive Wistar rat assessed as heart rate at 40 mg/kg, ip after 30 mins (reference value: 317.68 +/- 7.631 bpm); assay type: organism-based; parameters: dose 40 mg/kg, route intraperitoneal; settings: in vivo, 0.5 h
Rattus norvegicus [25] = assay: Toxicity in anaesthetized-Wistar rat assessed as P-Q ECG interval at 40 mg/kg, ip after 15 mins (reference value: 52.2 +/- 1.158 ms); assay type: organism-based; parameters: dose 40 mg/kg, route intraperitoneal; settings: in vivo, 0.25 h
Rattus norvegicus [26] = assay: Toxicity in […] normotensive Wistar rat assessed as mean arterial pressure at 40 mg/kg, ip after 30 mins (reference value: 94.68 +/- 1.213 mmHg); assay type: organism-based, Artery; parameters: dose 40 mg/kg, route intraperitoneal; settings: in vivo, 0.5 h
Rattus norvegicus [27] = assay: Antihypertensive activity in Wistar rat assessed as mean arterial pressure at 40 mg/kg, ip after 45 mins (reference value: 193.96 +/- 0.865 mmHg); assay type: functional, Artery; settings: route intraperitoneal
Rattus norvegicus [28] = assay: Toxicity in anaesthetized-Wistar rat assessed as QRS ECG interval at 40 mg/kg, ip after 60 mins (reference value: 19.3 +/- 0.873 ms); assay type: organism-based; parameters: dose 40 mg/kg, route intraperitoneal; settings: in vivo, 1 h
Rattus norvegicus [29] = assay: Toxicity in anaesthetized-Wistar rat assessed as P-Q ECG interval at 40 mg/kg, ip measured immediately at 0 min (reference value: 52.4 +/- 0.927 ms); assay type: organism-based; parameters: dose 40 mg/kg, route intraperitoneal; settings: in vivo, 0 h
Rattus norvegicus [30] = assay: Toxicity in anaesthetized-Wistar rat assessed as QRS ECG interval at 40 mg/kg, ip measured immediately at 0 min (reference value: 19.6 +/- 1.142 ms); assay type: organism-based; parameters: dose 40 mg/kg, route intraperitoneal; settings: in vivo, 0 h
Rattus norvegicus [31] = assay: Toxicity in anaesthetized-Wistar rat assessed as Q-T ECG interval at 40 mg/kg, ip after 30 mins (reference value: 78.3 +/- 0.860 ms); assay type: organism-based; parameters: dose 40 mg/kg, route intraperitoneal; settings: in vivo, 0.5 h
Rattus norvegicus [32] = assay: Toxicity in anesthetized-normotensive Wistar rat assessed as heart rate at 40 mg/kg, ip after 60 mins (reference value: 314.96 +/- 9.442 bpm); assay type: organism-based; parameters: dose 40 mg/kg, route intraperitoneal; settings: in vivo, 1 h

Structure (SMILES) | Activity (Rattus norvegicus [1]) [mmHg] | Activity (Rattus norvegicus [2]) [bpm] | Activity (Rattus norvegicus [3]) [min] | Time (Rattus norvegicus [4]) [s] | Activity (Rattus norvegicus [5]) [min] | Activity (Rattus norvegicus [6]) [ms] | Activity (Rattus norvegicus [7]) [mmHg] | Activity (Rattus norvegicus [8]) [min] | Activity (Rattus norvegicus [9]) [mmHg] | Activity (Rattus norvegicus [10]) [min] | Activity (Rattus norvegicus [11]) [bpm] | Activity (Rattus norvegicus [12]) [mmHg] | Activity (Rattus norvegicus [13]) [min] | Time (Rattus norvegicus [14]) [s] | Activity (Rattus norvegicus [15]) [mmHg] | Activity (Rattus norvegicus [16]) [min] | Activity (Rattus norvegicus [17]) [mmHg] | Activity (Rattus norvegicus [18]) [ms] | Activity (Rattus norvegicus [19]) [mmHg] | Activity (Rattus norvegicus [20]) [mmHg] | also measured
CCCN(CCC)CC(O)CN1C(=O)/C(=C\c2ccccc2)S/C1=N\c1ccccc1 (stereo unspecified) | 95.41 | 319.34 | 23.2 | 938.4 | 74.9 | 23.8 | 72.37 | 50.2 | 88.98 | 24.1 | 329.62 | 91.1 | 72.5 | 266.1 | 172.23 | 51.3 | 193.57 | 72.7 | 170.1 | 184.76 | Activity (Rattus norvegicus [21]): 305.32 bpm; Activity (Rattus norvegicus [22]): 52.4 min; Activity (Rattus norvegicus [23]): 72.9 min; Activity (Rattus norvegicus [24]): 289.52 bpm; Activity (Rattus norvegicus [25]): 49.7 min; Activity (Rattus norvegicus [26]): 79.16 mmHg; Activity (Rattus norvegicus [27]): 153.26 mmHg; Activity (Rattus norvegicus [28]): 22.5 min; Activity (Rattus norvegicus [29]): 49.4 ms; Activity (Rattus norvegicus [30]): 22.8 min; Activity (Rattus norvegicus [31]): 73.4 min; Activity (Rattus norvegicus [32]): 312.43 bpm
O=C1/C(=C\c2ccccc2)S/C(=N\c2ccccc2)N1CC(O)CN1CCN(C2CCCCC2)CC1 (stereo unspecified) | 93.99 | 312.65 | 21.4 | 944.9 | 0.00122 | 21.9 | 64.01 | 51.3 | 75.43 | 22.8 | 324.13 | 85.61 | 72.8 | 297.5 | 158.39 | 52.3 | 195.99 | 71.2 | 151.12 | 185.69 | Activity (Rattus norvegicus [21]): 294.42 bpm; Activity (Rattus norvegicus [22]): 50.6 min; Activity (Rattus norvegicus [23]): 72.9 min; Activity (Rattus norvegicus [24]): 289.54 bpm; Activity (Rattus norvegicus [25]): 51.7 min; Activity (Rattus norvegicus [26]): 77.84 mmHg; Activity (Rattus norvegicus [27]): 138.63 mmHg; Activity (Rattus norvegicus [28]): 22.6 min; Activity (Rattus norvegicus [29]): 51.2 ms; Activity (Rattus norvegicus [30]): 20 min; Activity (Rattus norvegicus [31]): 73.3 min; Activity (Rattus norvegicus [32]): 303.42 bpm
CC(C)N1CCN(CC(O)CN2C(=O)/C(=C\c3ccccc3)S/C2=N\c2ccccc2)CC1 (stereo unspecified) | 92.09 | 298.46 | 23.7 | 1213.7 | 77.1 | 24.1 | 65.43 | 55.6 | 76.27 | 24.6 | 310.34 | 79.32 | 76 | 354.8 | 160.84 | 54.1 | 193.37 | 77.4 | 161.56 | 185.53 | Activity (Rattus norvegicus [21]): 253.26 bpm; Activity (Rattus norvegicus [22]): 55.2 min; Activity (Rattus norvegicus [23]): 76.2 min; Activity (Rattus norvegicus [24]): 272.41 bpm; Activity (Rattus norvegicus [25]): 53.9 min; Activity (Rattus norvegicus [26]): 62.08 mmHg; Activity (Rattus norvegicus [27]): 146.51 mmHg; Activity (Rattus norvegicus [28]): 24.8 min; Activity (Rattus norvegicus [29]): 53.5 ms; Activity (Rattus norvegicus [30]): 23.3 min; Activity (Rattus norvegicus [31]): 76.6 min; Activity (Rattus norvegicus [32]): 302.92 bpm
